According to the NIST ThermoML archive (doi:10.1016/j.jct.2018.08.004):

Assay: xn = mol fraction of the nth substance listed
Conditions: for surface tension liquid-gas: Maximal bubble pressure; for mass density: 100 kPa, Liquid, Vibrating tube method

CCCC[n+]1ccccc1.N#C[N-]C#N [1-butylpyridinium dicyanamide] + CCCO
Conditions	mass density [kg/m3]	surface tension liquid-gas [mN/m]
288.15 K, x1 = 0.1001	872.25	26.5
288.15 K, x1 = 0.2008	919.12	27.9
288.15 K, x1 = 0.3008	954.79	29.5
288.15 K, x1 = 0.4009	982.76	31.7
288.15 K, x1 = 0.4994	1005.24	33.1
288.15 K, x1 = 0.5998	1023.96	35.7
288.15 K, x1 = 0.6976	1039.92	38.4
288.15 K, x1 = 0.7974	1052.61	41.2
288.15 K, x1 = 0.903	1064.59	45.8
288.15 K, x1 = 1	1074.97	56.3
293.15 K, x1 = 0.1001	868.53	26.1
293.15 K, x1 = 0.2008	915.57	27.6
293.15 K, x1 = 0.3008	951.37	29.1
293.15 K, x1 = 0.4009	979.42	31.3
293.15 K, x1 = 0.4994	1001.98	32.8
293.15 K, x1 = 0.5998	1020.75	35.3
293.15 K, x1 = 0.6976	1036.74	38
293.15 K, x1 = 0.7974	1049.46	41
293.15 K, x1 = 0.903	1061.47	45.6
293.15 K, x1 = 1	1071.9	56
298.15 K, x1 = 0.1001	864.79	25.6
298.15 K, x1 = 0.2008	912.01	27.1
298.15 K, x1 = 0.3008	947.94	28.8
298.15 K, x1 = 0.4009	976.09	31.1
298.15 K, x1 = 0.4994	998.72	32.5
298.15 K, x1 = 0.5998	1017.54	35
298.15 K, x1 = 0.6976	1033.57	37.7
298.15 K, x1 = 0.7974	1046.31	40.7
298.15 K, x1 = 0.903	1058.35	45.2
298.15 K, x1 = 1	1068.83	55.7
303.15 K, x1 = 0.1001	861.04	25.2
303.15 K, x1 = 0.2008	908.45	26.7
303.15 K, x1 = 0.3008	944.53	28.4
303.15 K, x1 = 0.4009	972.76	30.7
303.15 K, x1 = 0.4994	995.47	32.2
303.15 K, x1 = 0.5998	1014.34	34.7
303.15 K, x1 = 0.6976	1030.42	37.4
303.15 K, x1 = 0.7974	1043.18	40.4
303.15 K, x1 = 0.903	1055.25	45
303.15 K, x1 = 1	1065.76	55.5
308.15 K, x1 = 0.1001	857.28	24.7
308.15 K, x1 = 0.2008	904.9	26.4
308.15 K, x1 = 0.3008	941.11	28.1
308.15 K, x1 = 0.4009	969.44	30.4
308.15 K, x1 = 0.4994	992.23	31.7
308.15 K, x1 = 0.5998	1011.15	34.4
308.15 K, x1 = 0.6976	1027.27	37.1
308.15 K, x1 = 0.7974	1040.07	40.1
308.15 K, x1 = 0.903	1052.16	44.7
308.15 K, x1 = 1	1062.7	55.2
313.15 K, x1 = 0.1001	853.51	24.4
313.15 K, x1 = 0.2008	901.33	26
313.15 K, x1 = 0.3008	937.71	27.7
313.15 K, x1 = 0.4009	966.13	30
313.15 K, x1 = 0.4994	989	31.5
313.15 K, x1 = 0.5998	1007.98	34.1
313.15 K, x1 = 0.6976	1024.14	36.8
313.15 K, x1 = 0.7974	1036.96	39.8
313.15 K, x1 = 0.903	1049.09	44.4
313.15 K, x1 = 1	1059.66	54.9
318.15 K, x1 = 0.1001	849.73	24
318.15 K, x1 = 0.2008	897.78	25.6
318.15 K, x1 = 0.3008	934.3	27.3
318.15 K, x1 = 0.4009	962.85	29.6
318.15 K, x1 = 0.4994	985.79	31.2
318.15 K, x1 = 0.5998	1004.82	33.8
318.15 K, x1 = 0.6976	1021.02	36.6
318.15 K, x1 = 0.7974	1033.88	39.5
318.15 K, x1 = 0.903	1046.03	44.1
318.15 K, x1 = 1	1056.64	54.5

CCCC[n+]1ccccc1.N#C[N-]C#N [1-butylpyridinium dicyanamide] + CCO
Conditions	mass density [kg/m3]	surface tension liquid-gas [mN/m]
288.15 K, x1 = 0.0999	877.29	25.7
288.15 K, x1 = 0.201	930.73	28
288.15 K, x1 = 0.2996	967.04	30.3
288.15 K, x1 = 0.3993	994.22	33.2
288.15 K, x1 = 0.4897	1013.42	35.8
288.15 K, x1 = 0.6017	1032.37	38.3
288.15 K, x1 = 0.693	1044.81	40.9
288.15 K, x1 = 0.7974	1056.62	44.5
288.15 K, x1 = 0.905	1066.7	50.3
288.15 K, x1 = 1	1074.97	56.3
293.15 K, x1 = 0.0999	873.42	25.1
293.15 K, x1 = 0.201	927.12	27.5
293.15 K, x1 = 0.2996	963.57	29.8
293.15 K, x1 = 0.3993	990.86	32.9
293.15 K, x1 = 0.4897	1010.13	35.5
293.15 K, x1 = 0.6017	1029.14	38
293.15 K, x1 = 0.693	1041.62	40.6
293.15 K, x1 = 0.7974	1053.47	44.2
293.15 K, x1 = 0.905	1063.59	50
293.15 K, x1 = 1	1071.9	56
298.15 K, x1 = 0.0999	869.54	24.6
298.15 K, x1 = 0.201	923.5	27.1
298.15 K, x1 = 0.2996	960.1	29.5
298.15 K, x1 = 0.3993	987.5	32.6
298.15 K, x1 = 0.4897	1006.84	35.2
298.15 K, x1 = 0.6017	1025.91	37.7
298.15 K, x1 = 0.693	1038.43	40.3
298.15 K, x1 = 0.7974	1050.31	43.9
298.15 K, x1 = 0.905	1060.48	49.7
298.15 K, x1 = 1	1068.83	55.7
303.15 K, x1 = 0.0999	865.66	24.2
303.15 K, x1 = 0.201	919.87	26.7
303.15 K, x1 = 0.2996	956.64	29.1
303.15 K, x1 = 0.3993	984.14	32.3
303.15 K, x1 = 0.4897	1003.56	34.9
303.15 K, x1 = 0.6017	1022.7	37.4
303.15 K, x1 = 0.693	1035.25	40
303.15 K, x1 = 0.7974	1047.18	43.6
303.15 K, x1 = 0.905	1057.35	49.4
303.15 K, x1 = 1	1065.76	55.5
308.15 K, x1 = 0.0999	861.77	23.8
308.15 K, x1 = 0.201	916.25	26.3
308.15 K, x1 = 0.2996	953.18	28.8
308.15 K, x1 = 0.3993	980.79	31.9
308.15 K, x1 = 0.4897	1000.29	34.5
308.15 K, x1 = 0.6017	1019.5	37
308.15 K, x1 = 0.693	1032.09	39.7
308.15 K, x1 = 0.7974	1044.05	43.3
308.15 K, x1 = 0.905	1054.26	49.1
308.15 K, x1 = 1	1062.7	55.2
313.15 K, x1 = 0.0999	857.88	23.4
313.15 K, x1 = 0.201	912.63	25.9
313.15 K, x1 = 0.2996	949.73	28.3
313.15 K, x1 = 0.3993	977.47	31.4
313.15 K, x1 = 0.4897	997.04	34.1
313.15 K, x1 = 0.6017	1016.31	36.7
313.15 K, x1 = 0.693	1028.95	39.4
313.15 K, x1 = 0.7974	1040.95	43.1
313.15 K, x1 = 0.905	1051.18	48.8
313.15 K, x1 = 1	1059.66	54.9
318.15 K, x1 = 0.0999	853.98	22.7
318.15 K, x1 = 0.201	909.01	25.4
318.15 K, x1 = 0.2996	946.29	27.9
318.15 K, x1 = 0.3993	974.15	31.1
318.15 K, x1 = 0.4897	993.79	33.8
318.15 K, x1 = 0.6017	1013.14	36.4
318.15 K, x1 = 0.693	1025.82	39
318.15 K, x1 = 0.7974	1037.86	42.7
318.15 K, x1 = 0.905	1048.12	48.6
318.15 K, x1 = 1	1056.64	54.5
